Assay results taken from PMC12736018, “Stereoselective Cytotoxicity of Enantiopure 3,3-Dichloro-γ-lactams: Correlating In Vitro Activity with In Vivo Tolerability” (Molecules, 2025).
Converted amounts (≈) assume the structure as drawn.

Experiments:
[1] = tested on: A431 cells; test: MTT cell viability assay, A431; format: cell-based; conditions: Homo sapiens, A-431, 24 h
Experimental: (§1) The murine Swiss albino fibroblast (3T3), the immortal human keratinocyte (HaCaT), the squamous cell carcinoma (A431), the human epithelial carcinoma (HeLa) and the human breast adenocarcinoma (MCF-7) cell lines were sourced from Celltec UB (Barcelona, Spain). All cells were maintained and grown in DMEM medium (4.5 g/L glucose) supplemented with 10% (v/v) FBS, 2 mM L-glutamine, 100 U/mL penicillin and 100 μg/mL streptomycin at 37 °C, 5% CO2. Cells were routinely cultured in 75 cm^2 culture flasks and were trypsinized using trypsin-EDTA when the cells reached approximately 80%. Cell concentration in the resulting suspension was assessed using the trypan blue assay, which enables direct discrimination between viable (unstained) and non-viable (blue) cells.
(§2) T3 and HaCaT cells (1 × 10^5 cells/mL), along with A431, HeLa, and MCF-7 cells (5 × 10^4 cells/mL), were cultured at defined seeding densities in the 60 central wells of a 96-well plate. Cells were first incubated for 24 h under standard incubator conditions (5% CO2, 37 °C). After this period, the culture medium was removed, and the cells were incubated for an additional 24 h with their corresponding compound solutions (1 mg/mL) previously diluted in a minimum amount of DMF (dimethylformamide) and then in DMEM medium supplemented with 5% FBS (100 µL) at the required concentration range (20 to 250 µg/mL). Cell viability following exposure to the lactam derivatives was evaluated using two complementary assays: NRU and MTT.
(§3) Only living cells can reduce the yellow tetrazolium salt 3-(4,5-dimethyl-2-thiazolyl)-2,5-diphenyltetrazolium bromide (MTT) to insoluble purple formazan crystals. After a 24 h incubation of the cells with their corresponding NPs, the medium was removed and 100 µL of MTT (Sigma-Aldrich, St. Louis, MO, USA) in PBS (5 mg/mL) diluted 1:10 in culture medium without phenol red and without FBS (Lonza, Verviers, Belgium) was added to the cells. After 3 h of incubation, the medium was removed. Thereafter, 100 µL of DMSO (Sigma-Aldrich, St. Louis, MO, USA) was added to each well to dissolve the purple formazan crystals. Agitation and absorbance measurements of the extracted solution were carried out under the same conditions described for the NRU assay. The effect of each treatment was then expressed as the percentage of tetrazolium salt reduction by viable cells relative to untreated controls.
(§4) The half-maximal inhibitory concentration (IC50) values for the different formulations, across cell lines and experimental endpoints, were obtained by fitting the concentration-dependent viability curves. […] These findings reflect the very low cytotoxicity of the compounds toward these cell lines.

[2] = Hemolysis assay; format: cell-based; conditions: human, human erythrocyte suspension, pH 7.4, 10 and 80 µg/mL
Experimental: Human blood samples were obtained from the Banc de Sang i Teixits de Barcelona (Barcelona, Spain) under the Catalan Department of Health. Blood was collected in tubes containing the anticoagulant EDTA-K3. Samples were centrifuged at 3000 rpm and 4 °C for 10 min (Megafuge 2.0 R, Heraeus Instruments, Hanau, Germany) to promote sedimentation, after which plasma was carefully eliminated using a Pasteur pipette. The remaining pellet was washed with PBS (pH 7.4) three times to remove residual leukocytes and platelets while concentrating erythrocytes. After the final wash, the erythrocyte pellet was resuspended in PBS (pH 7.4) at a 1:1 ratio to achieve a final erythrocyte concentration of 8 × 10^9 cells/mL.
The hemolysis assay is used to evaluate the ability of the tested compounds to disrupt erythrocyte membranes. Stock solutions of each compound were prepared in PBS (pH 7.4) at a concentration of 1 mg/mL. Volumes ranging from 10 to 80 μL were transferred into polystyrene tubes, followed by the addition of 25 µL of the erythrocyte suspension, bringing the total volume to 1 mL. The samples were incubated at room temperature under gentle rotation and subsequently centrifuged at 10,000 rpm for 5 min. The absorbance of the resulting supernatants at 540 nm (Shimadzu UV-160A, Shimadzu, Duisburg, Germany) was measured and compared with that of the positive control (erythrocytes hemolyzed with distilled water) and the negative control (erythrocytes suspension in PBS, pH 7.4).
The degree of hemolysis was determined using the following equation:Hemolysis (%) = 100 × (Abs − Abs0)/(Abs100 − Abs0) where Abs, Abs0 and Abs100 are the absorbance of the test samples, of the suspension treated with isotonic phosphate–buffered saline (PBS) and of the suspension of complete hemolysis treated with distilled water, respectively.

[3] = tested on: HeLa cells; test: NRU cell viability assay, HeLa; format: cell-based, human; conditions: Homo sapiens, 24 h
Experimental: as §1, §2
(§5) The neutral red uptake (NRU) assay is based on the accumulation of dye in the lysosomes of viable cells. After the cells were incubated for 24 h with the corresponding systems, the medium was removed, and the solutions were incubated with the NR dye (Sigma-Aldrich, St. Louis, MO, USA) solution (50 µg/mL) dissolved in the medium, without FBS and without phenol red (Lonza, Verviers, Belgium), for 3 h. Cells were then washed with sterile PBS, followed by the addition of 100 µL of a solution containing 50% absolute ethanol and 1% acetic acid in distilled water to extract the dye. To promote the total dissolution of the dye, plates were placed in a microtiter-plate shaker for 5 min at room temperature. The absorbance of the resulting solutions was measured at 550 nm (Bio-Rad 550 microplate reader, Bio-Rad California, Hercules, CA, USA). Finally, the effect of each treatment was calculated as the percentage of dye uptake by viable cells relative to the control cells (cells without any treatment). Finally, the effect of each treatment was calculated as the percentage of dye retained by viable cells compared with untreated control cells.
as §4

[4] = tested on: HaCaT cells; test: MTT cell viability assay, HaCaT; format: cell-based; conditions: Homo sapiens, 24 h
Experimental: as §1, §2, §3, §4

[5] = tested on: 3T3 cells; test: MTT cell viability assay, 3T3; format: cell-based; conditions: Mus musculus, NIH3T3; 3T3, MTT, 24 h
Experimental: as §1, §2, §3, §4

[6] = tested on: A431 cells; test: NRU cell viability assay, A431; format: cell-based, human; conditions: Homo sapiens, A-431, 24 h
Experimental: as §1, §2, §5, §4

[7] = tested on: MCF-7 cells; test: MTT cell viability assay, MCF-7; format: cell-based; conditions: Homo sapiens, MCF7; MCF-7, MTT, 24 h
Experimental: as §1, §2, §3, §4

C[C@H](c1ccccc1)N1C[C@H](C)C(Cl)(Cl)C1=O [Compound 4]
IC50 [1]: 164 µg/mL (≈ 604 µM)
hemolysis [2]: < 2%
IC50 [3]: 77.5 µg/mL (≈ 285 µM)
IC50 [4]: 57.3 µg/mL (≈ 210 µM)
IC50 [5]: 94.6 µg/mL (≈ 348 µM)
IC50 [6]: 108 µg/mL (≈ 396 µM)
IC50 [7]: 77.8 µg/mL (≈ 286 µM)

C[C@@H]1CN([C@@H](C)c2ccccc2)C(=O)C1(Cl)Cl [Compound 3, (R)-3,3-dichloro-4-methyl-1-((S)-1-phenylethyl)pyrrolidin-2-one]
IC50 [1]: 56 µg/mL (≈ 206 µM)
hemolysis [2]: < 2%
IC50 [3]: 160 µg/mL (≈ 588 µM)
IC50 [4]: 122 µg/mL (≈ 450 µM)
IC50 [5]: 30 µg/mL (≈ 110 µM)
IC50 [6]: 60.2 µg/mL (≈ 221 µM)
IC50 [7]: 193 µg/mL (≈ 708 µM)
